Results on 59 substances are retold here after patent US20240393292A1, “ALLERGY ANTIGEN AND EPITOPE THEREOF” (HOYU CO., LTD., priority 2019, published 2024).

This assay deals with IgE antibodies from patients. Put plainly: Wheat epitope mapping (2): overlapping 10-amino-acid peptide fragments shifted by one amino acid. The class given is binding, human. The settings on record: partial sequence. The gist of the method: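 Cellulose-bound 10-mer peptides offset by one residue were probed with patient serum IgE and detected by chemiluminescence. Secondary-antibody-only signals were subtracted per peptide. Residual binding was expressed as % of the parent overlapping peptide, scored as none (<30%), poor (30–<50%), somewhat poor (50–<70%) or retained (≥70%).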

[1] abbreviates: serum of patient P53 (child, general immediate type allergy to wheat).
Where [2] appears, read: serum of patient P54 (child, general immediate type allergy to wheat).
[3] abbreviates: serum of patient G3 (adult, general immediate type allergy to wheat).
[4] abbreviates: serum of patient G6 (adult, general immediate type allergy to wheat).
Setting [5] is: serum of patient G7 (adult, general immediate type allergy to wheat).
[6] abbreviates: serum of patient G9 (adult, general immediate type allergy to wheat).

For the substance “2559 (LVQQLCC; REGION 1..7: note = epitope) [compound 2559]”, under “serum of patient P21 (WDEIA)”, the “Epitope sequence binding to IgE antibody, rank of the sequence” value (“Epitope sequence binding to IgE antibody” for short) is on record as “Key”.

For “2560 (LQQSTYQLVQ; REGION 1..10: note = epitope) [compound 2560]”, the “Epitope sequence binding to IgE antibody” value (serum of patient P22 (WDEIA)) is listed as “Key”.

For the substance “2561 (LVQQL; REGION 1..5: note = epitope) [compound 2561]”, where the note is “serum of patient P22 (WDEIA)”, the “Epitope sequence binding to IgE antibody” value was “Key”.

“2563 (QLVQQLCC; REGION 1..8: note = epitope) [compound 2563]”: the “Epitope sequence binding to IgE antibody” value (serum of patient P24 (WDEIA)) is recorded as “Preferably”.

With “2564 (QLVQQ; REGION 1..5: note = epitope) [compound 2564]”, for the setting “serum of patient P24 (WDEIA)”, the “Epitope sequence binding to IgE antibody” value is “Key”.

Turning to “2565 (QSTYQLVQ; REGION 1..8: note = epitope) [compound 2565]”, the “Epitope sequence binding to IgE antibody” value (serum of patient P25 (WDEIA)) is given as “Key”.

For “2566 (YQLVQQLCC; REGION 1..9: note = epitope) [compound 2566]”, the “Epitope sequence binding to IgE antibody” value (serum of patient P25 (WDEIA)) was “Key”.

“2567 (QLVQQ; REGION 1..5: note = epitope) [compound 2567]”: under “serum of patient P26 (WDEIA)”, the “Epitope sequence binding to IgE antibody” value was “Key”.

Consider “2569 (QLVQQL; REGION 1..6: note = epitope) [compound 2569]”, for which the “Epitope sequence binding to IgE antibody” value (serum of patient P27 (WDEIA)) was “Preferably”.

For “2570 (QLVQQ; REGION 1..5: note = epitope) [compound 2570]”, the “Epitope sequence binding to IgE antibody” value (serum of patient P27 (WDEIA)) was “Key”.

For the substance “2574 (QLVQQL; REGION 1..6: note = epitope) [compound 2574]”, where the note is “serum of patient P28 (WDEIA)”, the “Epitope sequence binding to IgE antibody” value was “Preferably”.

“2575 (QLVQ; REGION 1..4: note = epitope) [compound 2575]”: the “Epitope sequence binding to IgE antibody” value (serum of patient P28 (WDEIA)) is recorded as “Key”.

“2578 (YQLVQQL; REGION 1..7: note = epitope) [compound 2578]”: under “serum of patient P29 (WDEIA)”, the “Epitope sequence binding to IgE antibody” value is on record as “Key”.

As for “2579 (YQLVQQ; REGION 1..6: note = epitope) [compound 2579]”, where the note is “serum of patient P30 (WDEIA)”, the “Epitope sequence binding to IgE antibody” value is “Key”.

As to “2583 (QLVQQ; REGION 1..5: note = epitope) [compound 2583]”, where the note is “serum of patient P31 (WDEIA)”, the “Epitope sequence binding to IgE antibody” value is reported as “Preferably”.

As to “2584 (QLVQ; REGION 1..4: note = epitope) [compound 2584]”, the “Epitope sequence binding to IgE antibody” value (serum of patient P31 (WDEIA)) is “Key”.

Take “2585 (LQQSTYQLVQ; REGION 1..10: note = epitope) [compound 2585]”: the “Epitope sequence binding to IgE antibody” value (serum of patient P32 (WDEIA)) was “Preferably”.

For the substance “2586 (LQQSTYQL; REGION 1..8: note = epitope) [compound 2586]”, the “Epitope sequence binding to IgE antibody” value (serum of patient P32 (WDEIA)) is recorded as “Key”.

On to “2587 (QLVQQLCC; REGION 1..8: note = epitope) [compound 2587]”, for which, where the note is “serum of patient P32 (WDEIA)”, the “Epitope sequence binding to IgE antibody” value is “Preferably”.

For the substance “2588 (QQLC; REGION 1..4: note = epitope) [compound 2588]”, for the setting “serum of patient P32 (WDEIA)”, the “Epitope sequence binding to IgE antibody” value is “Key”.

Turning to “2590 (QLVQQLCC; REGION 1..8: note = epitope) [compound 2590]”, where the note is “serum of patient P34 (WDEIA)”, the “Epitope sequence binding to IgE antibody” value is “Preferably”.

As for “2591 (QLVQQL; REGION 1..6: note = epitope) [compound 2591]”, the “Epitope sequence binding to IgE antibody” value (serum of patient P34 (WDEIA)) is “Key”.

Regarding “2592 (YQLVQQ; REGION 1..6: note = epitope) [compound 2592]”, the “Epitope sequence binding to IgE antibody” value (serum of patient P35 (WDEIA)) is “Preferably”.

For “2593 (QLVQ; REGION 1..4: note = epitope) [compound 2593]”, under “serum of patient P35 (WDEIA)”, the “Epitope sequence binding to IgE antibody” value is listed as “Key”.

As for “2594 (QLVQQL; REGION 1..6: note = epitope) [compound 2594]”, the “Epitope sequence binding to IgE antibody” value (serum of patient P36 (WDEIA)) is listed as “Preferably”.

Turning to “2595 (VQQL; REGION 1..4: note = epitope) [compound 2595]”, the “Epitope sequence binding to IgE antibody” value (serum of patient P36 (WDEIA)) was “Key”.

As for “2597 (QQSTYQLV; REGION 1..8: note = epitope) [compound 2597]”, the “Epitope sequence binding to IgE antibody” value under setting [1] is “Key”.

Take “2599 (QLVQQLCC; REGION 1..8: note = epitope) [compound 2599]”: the “Epitope sequence binding to IgE antibody” value under setting [1] was “Preferably”.

As to “2600 (QQLC; REGION 1..4: note = epitope) [compound 2600]”, the “Epitope sequence binding to IgE antibody” value under setting [1] is given as “Key”.

Take “2601 (QQSTYQLVQ; REGION 1..9: note = epitope) [compound 2601]”: under setting [1], the “Epitope sequence binding to IgE antibody” value is on record as “Preferably”.

Turning to “2602 (QQSTYQLV; REGION 1..8: note = epitope) [compound 2602]”, the “Epitope sequence binding to IgE antibody” value under setting [2] is “Key”.

For “2603 (QLVQQLC; REGION 1..7: note = epitope) [compound 2603]”, the “Epitope sequence binding to IgE antibody” value under setting [2] is given as “Key”.

For “2604 (YQLVQ; REGION 1..5: note = epitope) [compound 2604]”, the “Epitope sequence binding to IgE antibody” value under setting [2] was “Preferably”.

“2605 (QLVQ; REGION 1..4: note = epitope) [compound 2605]”: the “Epitope sequence binding to IgE antibody” value under setting [3] is listed as “Key”.

Take “2606 (QLVQQL; REGION 1..6: note = epitope) [compound 2606]”: the “Epitope sequence binding to IgE antibody” value (serum of patient G5 (adult, general immediate type allergy to wheat)) was “Key”.

Regarding “2607 (LQQSTYQLVQ; REGION 1..10: note = epitope) [compound 2607]”, the “Epitope sequence binding to IgE antibody” value under setting [4] is listed as “Key”.

For the substance “2608 (QLVQQL; REGION 1..6: note = epitope) [compound 2608]”, the “Epitope sequence binding to IgE antibody” value under setting [4] is given as “Key”.

In the case of “2609 (QLVQQLCC; REGION 1..8: note = epitope) [compound 2609]”, the “Epitope sequence binding to IgE antibody” value under setting [5] is recorded as “Key”.

Consider “2610 (LQQSTYQLV; REGION 1..9: note = epitope) [compound 2610]”, for which the “Epitope sequence binding to IgE antibody” value under setting [6] is “Key”.

Take “2611 (QSTYQLVQQL; REGION 1..10: note = epitope) [compound 2611]”: the “Epitope sequence binding to IgE antibody” value under setting [6] is “Key”.

On to “2612 (QLVQQLCC; REGION 1..8: note = epitope) [compound 2612]”, for which the “Epitope sequence binding to IgE antibody” value under setting [6] is listed as “Key”.

Regarding “2614 (AKPLL; REGION 1..5: note = epitope) [compound 2614]”, under “serum of patient P2 (WDEIA)”, the “Epitope sequence binding to IgE antibody” value is “Key”.

As to “2615 (SLSKRV; REGION 1..6: note = epitope) [compound 2615]”, the “Epitope sequence binding to IgE antibody” value (serum of patient P2 (WDEIA)) is on record as “Key”.

As for “2616 (AKPLL; REGION 1..5: note = epitope) [compound 2616]”, the “Epitope sequence binding to IgE antibody” value (serum of patient P24 (WDEIA)) is given as “Key”.

Turning to “2617 (SKRV; REGION 1..4: note = epitope) [compound 2617]”, under “serum of patient P24 (WDEIA)”, the “Epitope sequence binding to IgE antibody” value is recorded as “Key”.

Take “2619 (LASLSK; REGION 1..6: note = epitope) [compound 2619]”: the “Epitope sequence binding to IgE antibody” value (serum of patient P32 (WDEIA)) is recorded as “Key”.

With “2621 (LLAS; REGION 1..4: note = epitope) [compound 2621]”, the “Epitope sequence binding to IgE antibody” value (serum of patient G2 (adult, general immediate type allergy to wheat)) was “Key”.

For the substance “2623 (SAKPLL; REGION 1..6: note = epitope) [compound 2623]”, the “Epitope sequence binding to IgE antibody” value under setting [3] is on record as “Preferably”.

Consider “2624 (AKPLL; REGION 1..5: note = epitope) [compound 2624]”, for which the “Epitope sequence binding to IgE antibody” value under setting [3] is “Key”.

On to “2625 (ASLSKRV; REGION 1..7: note = epitope) [compound 2625]”, for which the “Epitope sequence binding to IgE antibody” value under setting [3] is recorded as “Preferably”.

Take “2626 (LSKRV; REGION 1..5: note = epitope) [compound 2626]”: under setting [3], the “Epitope sequence binding to IgE antibody” value was “Key”.

On to “2627 (LLASLSKRV; REGION 1..9: note = epitope) [compound 2627]”, for which, under setting [5], the “Epitope sequence binding to IgE antibody” value is “Key”.

As for “2630 (LASLSK; REGION 1..6: note = epitope) [compound 2630]”, under setting [6], the “Epitope sequence binding to IgE antibody” value is given as “Key”.

In the case of “2633 (KEAAEM; REGION 1..6: note = epitope) [compound 2633]”, the “Epitope sequence binding to IgE antibody” value (serum of patient P7 (WDEIA)) is listed as “Preferably”.

As to “2634 (EAAE; REGION 1..4: note = epitope) [compound 2634]”, the “Epitope sequence binding to IgE antibody” value (serum of patient P7 (WDEIA)) is on record as “Key”.

In the case of “2637 (KEAAEM; REGION 1..6: note = epitope) [compound 2637]”, the “Epitope sequence binding to IgE antibody” value (serum of patient P10 (WDEIA)) is “Preferably”.

“2638 (EAAE; REGION 1..4: note = epitope) [compound 2638]”: the “Epitope sequence binding to IgE antibody” value (serum of patient P10 (WDEIA)) is reported as “Key”.

For “2640 (RFEKEAAEMN; REGION 1..10: note = epitope) [compound 2640]”, the “Epitope sequence binding to IgE antibody” value (serum of patient P14 (WDEIA)) was “Preferably”.

Consider “2641 (KEAAEM; REGION 1..6: note = epitope) [compound 2641]”, for which, where the note is “serum of patient P14 (WDEIA)”, the “Epitope sequence binding to IgE antibody” value was “Key”.
